In the assay the test system is 3T3-L1 cells. Briefly: Adiponectin secretion amount in 3T3-L1 medium supernatant by ELISA. It counts as cell-based, mouse. The following applies: medium 7 days after differentiation induction, non-treatment control 4.27 ± 0.32, average ± standard error. As for the experimental part: Next, culture preadipocytes 3T3-L1 were thawed, inoculated in a 100 mm dish and cultured until 3T3-L1 cells reached about 80% confluence. A single dish of 3T3-L1 that had reached about 80% confluence was subcultured to a single 6-well plate and further cultured until the 3T3-L1 cells reached confluence in the 6-well plate, and then the medium was replaced with the differentiation induction medium, followed by differentiation induction. 48 hours later, the medium was replaced with the differentiation promotion medium, and thereafter, the medium was replaced with the differentiation promotion medium every two days. 7 days after the initiation of the differentiation induction, mRNA was extracted using Sepasol-RNA I Super (trade name; manufactured by Nacalai Tesque, Inc.), and the mRNA expression amounts of 36B4, aP2 and adiponectin, which were indicators of an early period of adipocyte differentiation, were measured using Light Cycler (TM). Also, the medium 7 days after the differentiation induction was taken in an amount of 1 mL from each well, and the amount of adiponectin in the medium supernatant was measured using a mouse/rat adiponectin ELISA kit (manufactured by Otsuka Pharmaceutical Co., Ltd.). […]
Only the strips of the antibody plates necessary for the analysis were taken out. […] Incidentally, the standard solutions always were measured for each measurement and each plate. […]
(In general: In an ELISA, binding on a coated surface is turned into a signal by an enzyme label.)

Molecules are shown by their SMILES.

On to `CC(C)=CCC/C(C)=C/COc1c2ccoc2cc2oc(=O)ccc12` [Bergamottin, bergamottin], for which the Adiponectin secretion amount turned out to be 4.37 ± 0.12 (1 μM) and 8.14 ± 0.36 (5 μM).

The values above are taken from US8257755B2, “Metabolic syndrome-improving agent and medicine, supplement, functional food and food additive containing the same” (ARKRAY, Inc., priority 2005, dated 2012).
